Legend:
TSPO [1] = test system: TSPO; set-up: method as in PMID 18355686, PMID 24939192; conditions: higher affinity than [^11C]PK-11195; cited from earlier work
[2] = Stability of final product (radiochemical purity by analytical HPLC); format: physicochemical; conditions: 6 h after the end of synthesis; manual and automated synthesis
Protocol: Radiochemical and chemical purity, stability and molar activity were assessed by analytical HPLC. The molar activity of the radiotracer was quantified by measuring the radioactivity injected and deriving the concentration of FEPPA in the sample by UV detection.
The identity of the labeled compound [^18F]FEPPA was confirmed by co-injection with a non-radioactive FEPPA standard. The concentration of FEPPA in the radioactive sample was obtained from the UV-peak area ratio for the radioactive product and the standard solution. Analytical HPLC was performed on a Nova-pak C18 column (300 × 3.9 mm, 4 μm) in 50 mM (NH4)H2PO4:CH3CN (1:1) at 1 mL/min using a Waters Corporation 2695 pump with a multi-wavelength 2489 UV Detector (Waters Corporation) in series with a Bioscan FC-4000 dual BGO coincidence detector (Bioscan, Inc., Washington, DC, USA). A delay time of 12 s was observed between the two detectors.

TSPO [3] = molecular target: T1, TSPO (Mus musculus, UniProt P50637); assay: In vivo dynamic PET/MR whole-body biodistribution of [^18F]FEPPA in control and LPS-injected mice; set-up: species or system C57BL/6 mice
T1 construct: from tissue; host or cells: living C57BL6 mice: brain regions, heart, lung, liver, spleen, kidney, blood (in vivo PET/MR)
Protocol: (§1) The mice in the LPS group (6 mice for each dose) were intraperitoneally injected with a single dose of 0.625, 1.25, 2.5 or 5 mg/kg LPS (Escherichia coli, strain O111:B4; Calbiochem, San Diego, CA, USA) to induce systemic inflammation. The control group were intraperitoneally injected with 0.9% NaCl. In vivo or in vitro assessments were performed 24 h after administration of LPS.
Before PET/MR imaging acquisition, the mice were anesthetized by passive inhalation of a mixture of isoflurane and oxygen (5% isoflurane for induction and 2% for maintenance). A fiber-optic temperature probe was inserted into the rectum to monitor the core temperature of the mice, then each animal was gently positioned in the MR cradle and the MRI coil was secured around the head. A warm water blanket was positioned to maintain the core temperature of the animals, then the mice were positioned inside the scanner. The depth of anesthesia, pulse and respiration were monitored constantly during the imaging procedure; in the unlikely event that an animal regained consciousness, the scanning was immediately stopped and the animal was removed from the scanner, humanely euthanized and eliminated from the study.
(§2) The animals (n = 6 per dose of LPS; n = 6 controls) were injected with [^18F]FEPPA (10.09 ± 1.38 MBq; […]) via the tail vein. Dynamic PET images were obtained using a 7 T PETMR Inline (Bruker, Rheinstetten, Germany) for 30 min with the energy window set to 350–650 keV. Images were acquired every 1 s for 10 images, 10 s for five images, 60 s for nine images, 300 s for two images and 600 s for 1 image; a total of 27 frames were collected.
(§3) The PET images were reconstructed through three-dimensional ordered-subset expectation maximization (3D-OSEM). The regional radioactivity concentration (KBq/cc) of [^18F]FEPPA was estimated based on the mean pixel values within the volumes of interest (VOI) corresponding to MR images of various regions of the brain. Image data were decay-corrected to the injection time. The radioactivity concentration (KBq/cc) of the VOI was converted to the standard uptake value (SUV), and the mean and standard error of the mean (SEM) radiotracer accumulation values were calculated for various tissues. PET/MR data were analyzed using PMOD 4.0 software (PMOD Technologies Ltd., Zurich, Switzerland).

TSPO [4] = molecular target: T1, TSPO; assay: In vivo PET/MR brain region-specific uptake and pharmacokinetics (SUV, VT by Logan graphical analysis, AUC); set-up: species or system C57BL/6 mice; conditions: for Brain [^18F]FEPPA uptake vs LPS dose: 24 h after injection
Protocol: as §1, §2
T1 and T2 MRI were performed to determine the anatomical structure of the brain. The MRI sequences included 0.5-mm thickness coronal T2 Turbo RARE high-resolution images (TR = 3455 ms, TE = 36 ms, matrix = 256 × 256, average = 8, slice number = 30).
as §3
The Logan graphical method for reversible uptake was used to assess whether [^18F]FEPPA PET/MRI [30] could be used to detect differences in the expression of TSPO. Cardiac blood was used as the reference tissue. The slope of the linear portion of the Logan plot represents the total distribution (VT). If metabolite-corrected plasma TACs are not available, a reference region TAC, Cp(t), can be used instead of the plasma TAC. Then, the slope of the linear portion of the plot can be calculated using (Eq. 1)1 ∫0tCTissueτdr/CTissuet=K∫0tCpτdr/CTissuet+V

[5] = set-up: method as in PMID 29875332; conditions: cited from earlier work

Radiochemical purity (stability of final product) [2]: more than 99%
Increase of [^18F]FEPPA in heart, LPS-induced group vs control (TSPO [3]; LPS 5 mg/kg, 24 h): ~ 3 folds
Increase of [^18F]FEPPA in lung, LPS-induced group vs control (TSPO [3]; LPS 5 mg/kg, 24 h): ~ 3 folds
Accumulated radioactivity (SUV), Blood (TSPO [3]; LPS (5 mg/kg i.p., 24 h) mice): 1.29 ± 0.128 SUV
Accumulated radioactivity (SUV), Heart muscle (TSPO [3]; LPS (5 mg/kg i.p., 24 h) mice): 3.60 ± 0.722 SUV
Accumulated radioactivity (SUV), Kidney (TSPO [3]; LPS (5 mg/kg i.p., 24 h) mice): 5.86 ± 0.504 SUV
Accumulated radioactivity (SUV), Liver (TSPO [3]; LPS (5 mg/kg i.p., 24 h) mice): 1.60 ± 0.097 SUV
Accumulated radioactivity (SUV), Spleen (TSPO [3]; LPS (5 mg/kg i.p., 24 h) mice): 0.96 ± 0.443 SUV
Accumulated radioactivity (SUV), Whole brain (TSPO [3]; LPS (5 mg/kg i.p., 24 h) mice): 0.76 ± 0.014 SUV
Time of peak radioactivity in heart muscle (TSPO [3]; after injection): ≤ 3 min
Time to steady state in heart muscle and lungs (TSPO [3]; after injection of [^18F]FEPPA): 10 min
Blood clearance kinetics (TSPO [3]; control group, after i.v. injection): biexponential
Accumulated radioactivity (SUV), Heart muscle (TSPO [3]; control mice): 1.24 ± 0.06 SUV
Accumulated radioactivity (SUV), Kidney (TSPO [3]; control mice): 4.80 ± 0.57 SUV
Accumulated radioactivity (SUV), Liver (TSPO [3]; control mice): 1.48 ± 0.36 SUV
Accumulated radioactivity (SUV), Lung (TSPO [3]; control mice): 1.38 ± 0.08 SUV
Accumulated radioactivity (SUV), Spleen (TSPO [3]; control mice): 1.16 ± 0.32 SUV
Accumulated radioactivity (SUV), Whole brain (TSPO [3]; control mice): 0.48 ± 0.05 SUV
Accumulated radioactivity (SUV), Blood (TSPO [3]; control mice, 30 min post-injection i.v.): 1.29 ± 0.03 SUV
Time of peak accumulation in the lungs (TSPO [3]; post-injection): 1 to 2 min
Brain [^18F]FEPPA uptake vs LPS dose (TSPO [4]; 5 mg/kg LPS): significantly higher uptake
AUC (SUV·min, 0–30 min) ratio in brain, LPS vs control (TSPO [4]; LPS 5 mg/kg, 24 h): 1.58 ± 0.09 fold
VT (Logan graphical analysis) in brain, LPS vs control (TSPO [4]; LPS 5 mg/kg, 24 h, average of brain regions, cardiac blood as reference): 1.25 ± 0.12 fold
Average SUV ratio for all brain regions, LPS vs control (TSPO [4]; LPS 5 mg/kg, 24 h, brain): 1.61 ± 0.1 fold
Brain [^18F]FEPPA uptake vs LPS dose (TSPO [4]; LPS dose ≦ 2.5 mg/kg): no significant difference
Time of peak radioactivity in brain regions (TSPO [4]; control animals, followed by rapid washout): ≤ 3 min
SMILES: CC(=O)N(Cc1ccccc1OCC[18F])c1cnccc1Oc1ccccc1 [[^18F]FEPPA, [^18F]-N-(2-(2-fluoroethoxy)benzyl)-N-(4-phenoxypyridin-3-yl) acetamide]
Affinity relative to [^11C]PK-11195 (TSPO [1]): 18 fold
Parent fraction of unmetabolized [^18F]FEPPA in the brain (intact form) ([5]; 30 min after injection): approximately 95%
Metabolite in plasma ([5]; 30 min imaging time-window): 60%
